Patent publication US9212168B2 (priority 2011, dated 2015)

Tests used:
HCV genotype 1a replicon = HCV genotype 1a replicon assay (NS3 protease activity readout); assay type: cell-based, hepatitis C virus; conditions: for Genotype 1a: HCV genotype 1a replicon; for EC50: Hepatitis C virus, read-out: Genotype 1a, HCV genotype 1a replicon
Summary of the method: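 Genotype 1a subgenomic replicon cells (APC89, Huh7.5) were treated with compound dose-responses in G418-free medium, 0.5% DMSO final, for 48 or 72 hours at 37° C. Lysate NS3/4a protease activity measured with 15 μM FRET substrate, 20 min at 37° C (ex 340/em 509 nm); EC50 by 4-parameter fit.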

HCV genotype 1b replicon = HCV genotype 1b replicon assay (Renilla luciferase readout); assay type: cell-based, hepatitis C virus; conditions: for Genotype 1b: HCV genotype 1b replicon; for EC50: Hepatitis C virus, read-out: Genotype 1b
Summary of the method: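 Huh7-derived APC144 subgenomic replicon cells carrying Renilla luciferase–NS3-NS5B, seeded 10,000/well without G418, then treated with compound dose-responses for 48 h at 37 °C (0.5% DMSO final). Luciferase signal fitted by 4-parameter model to EC50, reported as pEC50.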

## COC(=O)NC(C(=O)N1CC(OC)CC1c1nc(-c2ccc(-c3cc(F)c(NC(=O)c4ccc(N5CCN(C(=O)C(C)(C)CO)CC5C)nc4)cc3OC(F)(F)F)cc2)c[nH]1)C(C)(C)O (stereo not drawn) [Example 16-14]
HCV genotype 1a replicon
  Genotype 1a: D (D represents pEC50>10 (EC50<0.1 nM))
HCV genotype 1b replicon
  Genotype 1b: D (D represents pEC50>10 (EC50<0.1 nM))

## COC(=O)N[C@H](C(=O)N1C[C@@H](SC)C[C@H]1c1nc(-c2ccc(-c3ccc(C(=O)Nc4ccc(N5CCN(C(=O)[C@]6(C)CCCN6C(=O)[C@@H](NC(=O)OC)C(C)C)C[C@H]5C)nc4)cc3OC(F)(F)F)cc2)c[nH]1)C(C)C [Example 6-9]
HCV genotype 1a replicon
  EC50: < 0.1 nM
HCV genotype 1b replicon
  EC50: < 0.1 nM

## COC(=O)N[C@H](C(=O)N1C[C@@H](C)C[C@H]1c1nc(-c2ccc(-c3cc(Cl)c(NC(=O)c4ccc(N5CCN(C(=O)C(C)(C)CO)C[C@H]5C)nc4)cc3OC(F)(F)F)cc2)c[nH]1)C(C)C [Example 12-8]
HCV genotype 1a replicon
  EC50: < 0.1 nM
HCV genotype 1b replicon
  EC50: < 0.1 nM

## COC(=O)N[C@H](C(=O)N1C[C@@H](C)C[C@H]1c1nc(-c2ccc(-c3cc(F)c(NC(=O)c4ccc(N5CCN(C(=O)C(C)(C)CO)C[C@H]5C)nc4)cc3OC(F)(F)F)cc2)c[nH]1)C(C)C [Example 1-101]
HCV genotype 1a replicon
  Genotype 1a: D (D represents pEC50>10 (EC50<0.1 nM))
HCV genotype 1b replicon
  Genotype 1b: D (D represents pEC50>10 (EC50<0.1 nM))

## COC(=O)N[C@H](C(=O)N1C[C@@H](N(C)C)C[C@H]1c1nc(-c2ccc(-c3ccc(NC(=O)c4ccc(N5CCN(C(=O)[C@]6(C)CCCN6C(C)=O)C[C@H]5C)nc4)cc3)cc2)c[nH]1)C(C)C [Example 2-2]
HCV genotype 1a replicon
  Genotype 1a: C (C represents pEC50 between and 9 and about 10, (EC50 between 1 nM and 0.1 nM))
HCV genotype 1b replicon
  Genotype 1b: C (C represents pEC50 between and 9 and about 10, (EC50 between 1 nM and 0.1 nM))

## COC(=O)N[C@H](C(=O)N1C[C@@H](C)C[C@H]1c1nc(-c2ccc(-c3cc(Cl)c(NC(=O)c4ccc(N5CCN(C(=O)C(C)(C)C)C[C@@H]5C)nc4)cc3OC(F)(F)F)cc2)c[nH]1)C1CCOCC1 [Example 20-4]
HCV genotype 1a replicon
  Genotype 1a: D (D represents pEC50>10 (EC50<0.1 nM))
HCV genotype 1b replicon
  Genotype 1b: D (D represents pEC50>10 (EC50<0.1 nM))

## COC(=O)NC(CC1CCOCC1)C(=O)N1C[C@@H](C)C[C@H]1c1nc(-c2ccc(-c3cc(Cl)c(NC(=O)c4ccc(N5CCN(C(=O)C(C)(C)C)C[C@H]5C)nc4)cc3OC(F)(F)F)cc2)c[nH]1 (stereo partly drawn) [Example 13-34]
HCV genotype 1a replicon
  EC50: < 0.1 nM
HCV genotype 1b replicon
  EC50: < 0.1 nM

## COC(=O)N[C@H](C(=O)N1[C@@H]2C[C@@H]2C[C@H]1c1nc(-c2ccc(-c3cc(Cl)c(NC(=O)c4ccc(N5CCN(C(=O)C(C)(C)C)C[C@H]5C)nc4)cc3OC(F)(F)F)cc2)c[nH]1)C(C)C [Example 8-2]
HCV genotype 1a replicon
  EC50: < 0.1 nM
HCV genotype 1b replicon
  EC50: < 0.1 nM

## COC(=O)N[C@H](C(=O)N1C[C@@H](C)C[C@H]1c1nc(-c2ccc(-c3ccc(C(=O)Nc4ccc(N5C[C@H](C)N(C(=O)[C@H]6CCCN6C(=O)NC(C)C)C[C@H]5C)nc4)cc3OC(F)(F)F)cc2)c[nH]1)C(C)C [Example 4-20]
HCV genotype 1a replicon
  Genotype 1a: C (C represents pEC50 between and 9 and about 10, (EC50 between 1 nM and 0.1 nM))
HCV genotype 1b replicon
  Genotype 1b: D (D represents pEC50>10 (EC50<0.1 nM))

## COC(=O)NC(C(=O)N1C(C)CCC1c1nc(-c2ccc(-c3cc(Cl)c(NC(=O)c4ccc(N5CCN(C(=O)C6CC6(C)C)CC5C)nc4)cc3OC(F)(F)F)cc2)c[nH]1)C(C)C (stereo not drawn) [Example 17-4]
HCV genotype 1a replicon
  Genotype 1a: D (D represents pEC50>10 (EC50<0.1 nM))
HCV genotype 1b replicon
  Genotype 1b: D (D represents pEC50>10 (EC50<0.1 nM))

## COCC1(C(=O)N2CCN(c3ccc(C(=O)Nc4cc(OC(F)(F)F)c(-c5ccc(-c6c[nH]c([C@@H]7C[C@H](OC)CN7C(=O)[C@@H](NC(=O)OC)C7CCOCC7)n6)cc5)cc4Cl)cn3)[C@H](C)C2)CCC1 [Example 28-22]
HCV genotype 1a replicon
  Genotype 1a: D (D represents pEC50>10 (EC50<0.1 nM))
HCV genotype 1b replicon
  Genotype 1b: D (D represents pEC50>10 (EC50<0.1 nM))

## COC(=O)N[C@H](C(=O)N1C[C@@H](C)C[C@H]1c1nc(-c2ccc(-c3cc(Cl)c(NC(=O)c4ccc(N5CCN(C(=O)c6ncc[nH]6)C[C@H]5C)nc4)cc3OC(F)(F)F)cc2)c[nH]1)C(C)C [Example 1-35]
HCV genotype 1a replicon
  Genotype 1a: D (D represents pEC50>10 (EC50<0.1 nM))
HCV genotype 1b replicon
  Genotype 1b: D (D represents pEC50>10 (EC50<0.1 nM))

## COC(=O)N[C@H](C(=O)N1C[C@@H](C)C[C@H]1c1nc(-c2ccc(-c3cc(F)c(NC(=O)c4ccc(N5C[C@H](C)N(C(=O)C6CC6)C[C@H]5C)nc4)cc3OC(F)(F)F)cc2)c[nH]1)C(C)C [Example 1-15]
HCV genotype 1a replicon
  Genotype 1a: D (D represents pEC50>10 (EC50<0.1 nM))
HCV genotype 1b replicon
  Genotype 1b: D (D represents pEC50>10 (EC50<0.1 nM))

## COC(=O)N[C@H](C(=O)N1C[C@@H](C)C[C@H]1c1nc(-c2ccc(-c3cc(Cl)c(NC(=O)c4ccc(N5CCN(C(=O)C(C)(C)C)[C@H](C)C5)nc4)cc3OC(F)(F)F)cc2)c[nH]1)C1CCOCC1 [Example 20-6]
HCV genotype 1a replicon
  Genotype 1a: D (D represents pEC50>10 (EC50<0.1 nM))
HCV genotype 1b replicon
  Genotype 1b: D (D represents pEC50>10 (EC50<0.1 nM))

## COC(=O)N[C@H](C(=O)N1C[C@@H](C)C[C@H]1c1nc(-c2ccc(-c3cc(F)c(NC(=O)c4ccc(N5CCN(C(=O)[C@H]6CC6(C)C)C[C@H]5C)nc4)cc3C(F)(F)F)cc2)c[nH]1)C(C)C [Example 1-5]
HCV genotype 1a replicon
  Genotype 1a: D (D represents pEC50>10 (EC50<0.1 nM))
HCV genotype 1b replicon
  Genotype 1b: D (D represents pEC50>10 (EC50<0.1 nM))

## COC(=O)N[C@H](C(=O)N1C[C@@H](C)C[C@H]1c1nc(-c2ccc(-c3cc(Cl)c(NC(=O)c4ccc(N5CCN(C(=O)C(C)(C)C)C[C@H]5C)nc4)cc3OC(F)(F)F)cc2)c[nH]1)C(C)(C)O [Example 13-5]
HCV genotype 1a replicon
  EC50: < 0.1 nM
HCV genotype 1b replicon
  EC50: < 0.1 nM

## COC(=O)N[C@H](C(=O)N1CC2(C[C@H]1c1nc(-c3ccc(-c4ccc(C(=O)Nc5ccc(N6CCN(C(=O)C7CC7(C)C)C[C@H]6C)nc5)cc4)cc3)c[nH]1)OCCO2)C(C)C (stereo partly drawn) [Example 6-1]
HCV genotype 1a replicon
  EC50: 0.1 to 1 nM
HCV genotype 1b replicon
  EC50: < 0.1 nM

## COC(=O)N[C@H](C(=O)N1C[C@@H](OC)C[C@H]1c1nc(-c2ccc(-c3cc(Cl)c(C(=O)Nc4ccc(N5CCN(C(=O)C(C)(C)C)C[C@H]5C)nc4)cc3OC(F)(F)F)cc2)c[nH]1)C1CCOCC1 [Example 22-16]
HCV genotype 1a replicon
  Genotype 1a: D (D represents pEC50>10 (EC50<0.1 nM))
HCV genotype 1b replicon
  Genotype 1b: D (D represents pEC50>10 (EC50<0.1 nM))

## COC(=O)NC(C(=O)N1C[C@@H](C)C[C@H]1c1nc(-c2ccc(-c3c(F)cc(NC(=O)c4ccc(N5CCN(C(=O)C(C)(C)C)C[C@H]5C)nc4)cc3F)cc2)c[nH]1)C1CCOCC1 (stereo partly drawn) [Example 21-3]
HCV genotype 1a replicon
  EC50: < 0.1 nM
HCV genotype 1b replicon
  EC50: < 0.1 nM

## COC(=O)N[C@H](C(=O)N1C[C@@H](C)C[C@H]1c1nc(-c2ccc(-c3cc(Cl)c(NC(=O)c4ccc(N5CCN(C(=O)C(C)(C)CO)C[C@H]5C)nc4)cc3OC(F)(F)F)cc2)c[nH]1)C(C)(C)O [Example 13-16]
HCV genotype 1a replicon
  EC50: < 0.1 nM
HCV genotype 1b replicon
  EC50: < 0.1 nM

## COC(=O)N[C@H](C(=O)N1C[C@@H](OC)C[C@H]1c1nc(-c2ccc(-c3cc(F)c(NC(=O)c4ccc(N5CCN(C(=O)C(C)(C)C)C[C@H]5C)nc4)cc3OC(F)(F)F)cc2)c[nH]1)C(C)C [Example 27-3]
HCV genotype 1a replicon
  Genotype 1a: D (D represents pEC50>10 (EC50<0.1 nM))
HCV genotype 1b replicon
  Genotype 1b: D (D represents pEC50>10 (EC50<0.1 nM))

## CNC(=O)N1C[C@@H](C)N(c2ccc(C(=O)Nc3cc(OC(F)(F)F)c(-c4ccc(-c5c[nH]c([C@@H]6C[C@H](C)CN6C(=O)[C@@H](c6ccccc6)N6CCCCC6)n5)cc4)cc3Cl)cn2)C[C@@H]1C [Example 5-9]
HCV genotype 1a replicon
  EC50: < 0.1 nM
HCV genotype 1b replicon
  EC50: < 0.1 nM

## CNC(=O)N1C[C@@H](C)N(c2ccc(NC(=O)c3ccc(-c4ccc(-c5nc([C@@H]6C[C@H](C)CN6C(=O)[C@@H](NC(=O)OC)C(C)C)[nH]c5Cl)cc4)c(OC(F)(F)F)c3)cn2)C[C@@H]1C [Example 4-12]
HCV genotype 1a replicon
  Genotype 1a: D (D represents pEC50>10 (EC50<0.1 nM))
HCV genotype 1b replicon
  Genotype 1b: D (D represents pEC50>10 (EC50<0.1 nM))

## COC(=O)NC(C(=O)N1CC(C)CC1c1nc(-c2ccc(-c3ccc(NC(=O)c4ccc(N5CCN(C(=O)C(C)(C)CO)CC5C)nc4)cc3OC(F)(F)F)cc2)c[nH]1)C(C)(C)O (stereo not drawn) [Example 13-28]
HCV genotype 1a replicon
  Genotype 1a: D (D represents pEC50>10 (EC50<0.1 nM))
HCV genotype 1b replicon
  Genotype 1b: D (D represents pEC50>10 (EC50<0.1 nM))

## COC(=O)N[C@H](C(=O)N1C[C@@H](C)C[C@H]1c1nc(-c2ccc(-c3cc(Cl)c(NC(=O)c4ccc(N5C[C@H](C)N(C(=O)c6c[nH]cn6)C[C@H]5C)nc4)cc3OC(F)(F)F)cc2)c[nH]1)C(C)C [Example 1-19]
HCV genotype 1a replicon
  Genotype 1a: D (D represents pEC50>10 (EC50<0.1 nM))
HCV genotype 1b replicon
  Genotype 1b: D (D represents pEC50>10 (EC50<0.1 nM))

## COC(=O)N[C@H](C(=O)N1[C@@H](C)CC[C@H]1c1nc(-c2ccc(-c3cc(Cl)c(C(=O)Nc4ccc(N5CCN(C(=O)C(C)(C)C)C[C@H]5C)nc4)cc3OC(F)(F)F)cc2)c[nH]1)C1CCOCC1 [Example 18-5]
HCV genotype 1a replicon
  Genotype 1a: D (D represents pEC50>10 (EC50<0.1 nM))
HCV genotype 1b replicon
  Genotype 1b: D (D represents pEC50>10 (EC50<0.1 nM))

## COC(=O)N[C@H](C(=O)N1C[C@@H](C)C[C@H]1c1nc(-c2ccc(-c3cc(F)c(NC(=O)c4ccc(N5CCN(C(=O)[C@H]6CC6(C)C)C[C@H]5C)nc4)cc3OC(F)(F)F)cc2)c[nH]1)C(C)C [Example 1-10]
HCV genotype 1a replicon
  Genotype 1a: D (D represents pEC50>10 (EC50<0.1 nM))
HCV genotype 1b replicon
  Genotype 1b: D (D represents pEC50>10 (EC50<0.1 nM))
